Series [1] has as its target T1, DNA-PK (Homo sapiens (Human), UniProt P78527). Nature of the series: DNA-PK/Biochemical Assay (FlashPlate kinase assay). Particulars: 5 μM ATP, 90 min, room temperature. The protocol:
The kinase assay was carried out in streptavidin-coated […] microtitre FlashPlates®. To this end, 1.5 μg of the DNA-PK/protein complex and 100 ng of biotinylated substrate, such as, for example, […] biotin-NH2 (“biotin-DNA-PK peptide”), in a total volume of 36.5 μl (34.25 mM HEPES/KOH, 7.85 mM Tris-HCl, 68.5 mM KCl, 5 μM ATP, 6.85 mM MgCl2, 0.5 mM EDTA, 0.14 mM EGTA, 0.69 mM DTT, pH 7.4), were incubated at room temperature for 90 min with 500 ng of DNA from calf thymus, 0.1 μCi of 33P-ATP and 1.8% of DMSO per well with or without the test compound. The reaction was stopped using 50 μl/well of 200 mM EDTA. After incubation for a further 30 min at room temperature, the liquid was removed. Each well was washed three times with 100 μl of 0.9% sodium chloride solution. A non-specific reaction (blank value) was determined using 10 μM of a proprietary kinase inhibitor. The radioactivity measurement was carried out by means of a TopCount. IC50 values were calculated in RS1. • Literature: Kashishian et al. (2003) Molecular Cancer Therapeutics 1257.

For series [2], the system named is colorectal carcinoma cell line HCT116. Put plainly: Cellular Colony Growth Test with X-ray irradiation. Format: cell-based. Conditions: Homo sapiens, HCT-116, 4.8 Gy X-rays. The procedure:
Cellular Colony Growth Test The colorectal carcinoma cell line HCT116 was cultivated in MEM alpha medium with 10% oif foetal calf serum, 1 mM sodium pyruvate and 2 mM glutamine at 37° C. and 10% CO2. The cells were detached from the base of the culture vessels with the aid of trypsine/EDTA, centrifuged off in centrifuge tubes and taken up in fresh medium. The cell density was subsequently determined. 300 cells were sown out in 6-well cell culture plates in 2 ml of culture medium and cultivated overnight. Next day, the cells were treated with test substances for one hour before the cell culture plates were treated with defined doses of X-rays (in general 0, 2.4, 4.8, 12 Gray; irradiation instrument: Faxitron RX-650; Faxitron X-Ray LLC, USA). In order to determine the dose/effect relationships, the cells were treated with various concentrations of a test substance. After irradiation, the cells are cultivated for a further 24 hours in the presence of the test substance, the culture medium was then replaced with culture medium without test substance, and the cells were cultivated for a further 6-8 days. The cell colonies formed were subsequently stained with the aid of Crystal Violet and counted in a colony counter (Gelcount, Oxford Optronics, UK). Dose/effect curves, in particular IC50 values, were determined using a curve adaptation function for nonlinear dose/effect relationships.

The subject of series [3] is kinases of the PI3K isoenzyme family. Conditions: cited from earlier work.
The subject of the next series is mammal cells. Particulars: in cellular terms; cited from earlier work.
Series [4] has as its target T1, DNA-PK. Particulars: 5.0 mM ATP; cited from earlier work.
Series [5] addresses T1, DNA-PK. Conditions: ATP-competitive; cited from earlier work.

Structures are written as SMILES. Like-named read-outs stand apart in the source and are kept apart here. A value given as a limit tells only on which side of the number the result lay.

For `COc1cc2c(cc1O)ncc1c2c(-c2ccc(C#N)cc2)nn1C` [Compound 4, 4-(7-Hydroxy-8-methoxy-3-methyl-3H-pyrazolo-[3,4-c]quinolin-1-yl)-benzonitrile], the melting point (usually the temperature of the solid-liquid transition) stood at 288.9 °C. The IC50 (in general, the point on the concentration scale where inhibition reaches its midpoint) at DNA-PK [1] is less than 100 nM.

The compound `COc1cc2ncc3c(c(-c4ccc(C#N)cc4)nn3C)c2cc1OC(C(N)=O)c1ccc(F)cc1` (stereo not drawn) [Compound 8, 2-[1-(4-Cyanophenyl)-7-methoxy-3-methyl-3H-pyrazolo[3,4-c]quinolin-8-yloxy]-2-(4-fluorophenyl)-acetamide] displayed a melting point of 249.2 °C. Moreover, the half-inhibitory concentration (IC50) on DNA-PK [1] was less than 100 nM.

`COc1cc2ncc3c(c(-c4ccc(C#N)cc4)nn3C)c2cc1OCCN(C)C` [Compound 40, 4-[8-(2-Dimethylamino-ethoxy)-7-methoxy-3-methyl-3H-pyrazolo[3,4-c]quinolin-1-yl]benzonitrile] yielded a melting point of 212.2 °C. Further, on DNA-PK [1], the IC50 is more than 100 nM.

For the compound `CCN1CCN(CCNC(=O)C(Oc2cc3c(cc2OC)ncc2c3c(-c3ccc(C#N)cc3)nn2C)c2ccc(F)cc2)CC1` (stereo not drawn) [Compound 48, 2-[1-(4-Cyano-phenyl)-7-methoxy-3-methyl-3H-pyrazolo-[3,4-c]quinolin-8-yloxy]-N-[2-(4-ethyl-piperazin-1-yl)ethyl]-2-(4-fluorophenyl)-acetamide], the melting point fell in the range of 110 to 112 °C. The 50% inhibitory concentration (IC50) at DNA-PK [1] lay within 100 to 500 nM.

`CCn1nc(-c2ccc(C#N)cc2)c2c3cc(OC)c(OC)cc3ncc21` [Compound 56, 4-(7,8-Dimethoxy-3-ethyl-3H-pyrazolo[3,4-c]quinolin-1-yl)-benzonitrile]: the melting point is 227.4 °C. The compound also yielded a half-inhibitory concentration (IC50) at DNA-PK [1] of less than 100 nM.

With `COc1cc2ncc3c(c(-c4ccc(C#N)cc4)nn3C#N)c2cc1OC` [Compound 65, 1-(4-Cyanophenyl)-7,8-dimethoxypyrazolo[3,4-c]-quinoline-3-carbonitrile], on DNA-PK [1], the half-inhibitory concentration (IC50) was 100 to 500 nM.

`COc1cc2ncc3c(c(-c4ccc(C#N)cc4)nn3CC#N)c2cc1OC` [Compound 66, 4-(3-Cyanomethyl-7,8-dimethoxy-3H-pyrazolo[3,4-c]-quinolin-1-yl)benzonitrile] showed a 50% inhibitory concentration (IC50) on DNA-PK [1] of less than 100 nM.

As for `COc1cc2ncc3c(c(-c4ccc(C#N)cc4)nn3CC(=O)O)c2cc1OC` [Compound 67, [1-(4-Cyanophenyl)-7,8-dimethoxypyrazolo[3,4-c]-quinolin-3-yl]acetic acid], at DNA-PK [1], the IC50 is 100 to 500 nM.

Regarding `COc1cc2ncc3c(c(-c4ccc(C#N)cc4)nn3CC(N)=O)c2cc1OC` [Compound 68, 2-[1-(4-Cyanophenyl)-7,8-dimethoxypyrazolo[3,4-c]-quinolin-3-yl]acetamide], the IC50 against DNA-PK [1] fell in the range of 100 to 500 nM.

Turning to `COc1cc2ncc3c(c(-c4ccc(C#N)cc4)nn3C(F)F)c2cc1OC` [Compound 69, 4-(3-Difluoromethyl-7,8-dimethoxy-3H-pyrazolo[3,4-c]-quinolin-1-yl)benzonitrile], on DNA-PK [1], the IC50 was less than 100 nM.

Take `COc1cc2ncc3[nH]nc(-c4ccc(C#N)c(N5CCCC5)c4)c3c2cc1OC` [Compound 70, 4-(7,8-Dimethoxy-3H-pyrazolo[3,4-c]quinolin-1-yl)-2-pyrrolidin-1-yl-benzonitrile]: the melting point was 291 °C (dec.). On DNA-PK [1], this compound gave an IC50 of less than 100 nM.

Turning to `COCc1cc(-c2nn(C)c3cnc4cc(OC)c(OC)cc4c23)ccc1C#N` [Compound 71, 4-(7,8-Dimethoxy-3-methyl-3H-pyrazolo[3,4-c]quinolin-1-yl)-2-methoxymethyl-benzonitrile], on DNA-PK [1], the IC50 is less than 100 nM.

Compound `COC(=O)c1cc(-c2[nH]nc3cnc4cc(OC)c(OC)cc4c23)ccc1C#N` [Compound 72, 2-Cyano-5-(7,8-dimethoxy-3H-pyrazolo[3,4-c]quinolin-1-yl)benzoic acid methyl ester] came in with an IC50 on DNA-PK [1] of less than 100 nM.

On DNA-PK [1], `COc1cc2ncc3n[nH]c(-c4ccc(C#N)c(C(=O)O)c4)c3c2cc1OC` [Compound 73, 2-Cyano-5-(7,8-dimethoxy-3H-pyrazolo[3,4-c]quinolin-1-yl)benzoic acid] returned a 50% inhibitory concentration (IC50) of less than 100 nM.

As for `COc1cc2ncc3n[nH]c(-c4ccc(C#N)c(-c5ccccc5)c4)c3c2cc1OC` [Compound 74, 5-(7,8-Dimethoxy-3H-pyrazolo[3,4-c]quinolin-1-yl)biphenyl-2-carbonitrile], the half-maximal inhibitory concentration (IC50) against DNA-PK [1] is more than 500 nM.

For the compound `CCN1CCN(c2ccc(-c3nn(C)c4cnc5cc(OC)c(OC)cc5c34)cc2)CC1` [Compound 75, 1-[4-(4-Ethylpiperazin-1-yl)-phenyl]-7,8-dimethoxy-3-methyl-3H-pyrazolo[3,4-c]-quinoline], on DNA-PK [1], the IC50 lay in the range of 100 to 500 nM.

Consider `COc1cc2ncc3c(c(-c4ccccc4F)nn3C)c2cc1OC` [Compound 76, 1-(2-Fluorophenyl)-7,8-dimethoxy-3-methyl-3H-pyrazolo[3,4-c]quinoline], for which the IC50 against DNA-PK [1] is less than 100 nM.

On DNA-PK [1], `COc1cc2ncc3c(c(-c4ccc(C#N)cc4F)nn3C)c2cc1-c1cccnc1` [Compound 77, 3-Fluoro-4-(7-methoxy-3-methyl-8-pyridin-3-yl-3H-pyrazolo[3,4-c]-quinolin-1-yl)-benzonitrile] yielded a half-maximal inhibitory concentration (IC50) of less than 100 nM.

As to `COc1cc2ncc3c(c(-c4ccc(C#N)cc4F)nn3C)c2cc1-c1cnc2ccccc2c1` [Compound 78, 3-Fluoro-4-(7-methoxy-3-methyl-8-quinolin-3-yl-3H-pyrazolo[3,4-c]-quinolin-1-yl)-benzonitrile], the IC50 against DNA-PK [1] was less than 100 nM.

With `COc1cc2ncc3c(c(-c4ccc(-c5ccn[nH]5)cc4)nn3C)c2cc1OCc1cncs1` [Compound 79, 7-Methoxy-3-methyl-1-[4-(2H-pyrazol-3-yl)phenyl]-8-(thiazol-5-ylmethoxy)-3H-pyrazolo[3,4-c]quinoline], the IC50 against DNA-PK [1] is less than 100 nM.

On to `COc1cc2ncc3c(c(-c4ccc(-c5ccn[nH]5)cc4)nn3C)c2cc1-c1cn[nH]c1` [Compound 88, 7-Methoxy-3-methyl-8-(1H-pyrazol-4-yl)-1-[4-(2H-pyrazol-3-yl)phenyl]-3H-pyrazolo[3,4-c]quino-line], for which the IC50 against DNA-PK [1] is less than 100 nM.

In the case of `COc1cc2ncc3c(c(-c4ccc(C#N)cc4F)nn3C)c2cc1-c1cc[nH]c1` [Compound 89, 3-Fluoro-4-[7-methoxy-3-methyl-8-(1H-pyrrol-3-yl)-3H-pyrazolo[3,4-c]-quinolin-1-yl]-benzonitrile], the half-inhibitory concentration (IC50) on DNA-PK [1] was less than 100 nM.

In turn, `COc1cc2ncc3c(c(-c4ccc(C#N)cc4F)nn3C)c2cc1OC` [Compound 90, 4-(7,8-Dimethoxy-3-methyl-3H-pyrazolo-[3,4-c]quinolin-1-yl)-3-fluorobenzonitrile] showed an IC50 in series [2] of 100 to 500 nM.

For `CCN1CCN(CC(=O)Nc2ccc(-c3cccc4c(=O)cc(N5CCOCC5)oc34)c3sc4ccccc4c23)CC1` [KU-0060648], in series [3], the “inhibition of kinases of the PI3K isoenzyme family” value is on record as “potently inhibited”.

On to `O=c1cc(N2CCOCC2)oc2c(-c3ccccc3)cccc12` [LY294002], for which, in the series with mammal cells, the “increase in sensitivity to ionising irradiation” value is “only a weak increase in sensitivity”. Moreover, the concentration for half-maximal inhibition (IC50) on DNA-PK [4] was 1250 nM.

With `O=c1cc(N2CCOCC2)oc2c(-c3cccc4c3sc3ccccc34)cccc12` [NU-7441], at DNA-PK [5], the IC50 was 20 nM.

Values taken from US8802712B2, “Pyrazoloquinolines” (Merck Patent GmbH, priority 2010, dated 2014).
